The values below come from patent US6057371A, “Sigma receptor ligands and the use thereof” (Virginia Commonwealth University, priority 1992, dated 2000).

For experiment [1], the target named is T1, 5-HT1A receptor (Rattus norvegicus, UniProt P19327).
T1 sequence (P19327 1-422): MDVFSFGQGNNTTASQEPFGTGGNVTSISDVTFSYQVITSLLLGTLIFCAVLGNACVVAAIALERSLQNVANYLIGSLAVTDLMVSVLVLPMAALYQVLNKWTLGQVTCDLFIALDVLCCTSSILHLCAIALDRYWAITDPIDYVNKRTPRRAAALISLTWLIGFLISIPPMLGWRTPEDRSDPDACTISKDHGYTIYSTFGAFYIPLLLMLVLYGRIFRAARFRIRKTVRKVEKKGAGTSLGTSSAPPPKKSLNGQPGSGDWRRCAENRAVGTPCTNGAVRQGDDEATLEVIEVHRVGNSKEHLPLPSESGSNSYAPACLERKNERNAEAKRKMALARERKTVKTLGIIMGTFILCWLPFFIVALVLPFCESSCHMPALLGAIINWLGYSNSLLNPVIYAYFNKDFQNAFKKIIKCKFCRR
Nature of the experiment: biochemical. It is filed as binding. Set-up: 47: 529-540 (1986); from tissue; host or cells: brain tissue, inferred from the cited method (rat frontal cortex). The following applies: for IC50: Table 6, read-out: 5HT-1A (nM) MEAN. The procedure: (§1) Further sigma receptor binding assays against [^3 H]DTG and 5HT-1A binding assays were conducted according to the procedure outlined in the previous examples.

Experiment [2] concerns the target sigma receptor. Nature of the experiment: Sigma receptor binding, [^3 H]DTG, brain membranes (both sigma-1 and sigma-2 sites). To be noted: for IC50: Table 6, [^3 H]DTG. Set-up: species or system guinea pig. The procedure:
Sigma receptor binding assays using guinea pig brain membrane homogenates and the radioligand [^3 H]DTG were conducted as described by Weber et al.. […] Briefly, frozen whole guinea-pig brains (Biotrol, Indianapolis, Ind.) were homogenized in 10 volumes (w/v) of ice-cold 320 mM sucrose using a Brinkman polytron. The homogenate was centrifuged at 1,000× g for 20 minutes at 4° C. The supernatant was centrifuged at 20,000× g for 20 minutes at 4° C. The resulting pellet was resuspended in 10 initial volumes of 50 mM Tris/HCl buffer at pH 7.4 and centrifuged at 20,000× g for 20 minutes at 4° C. The resulting pellet was resuspended in 5 initial volumes ice-cold 50 mM Tris/Hcl […], and the final volume was adjusted to yield a protein concentration of 3 mg/ml. Aliquots of 20-ml were stored at -70° C. until used, with no detectable loss of binding.
The protein concentration in the 1-ml final incubation volume was 800 ug/ml, corresponding to 32 mg of brain tissue (original wet weight) and to a tissue concentration within the linear range for specific binding. […] Incubations were terminated after 90 minutes at room temperature by addition of 4 ml of ice-cold 50 mM Tris/HCl (pH 7.4) and rapid filtration of the membrane suspension through Whatman GF/B glass-fiber filters under vacuum, using a 48-well cell harvester (Brandel). The filters were washed 2 times with 4 ml of 50 mM Tris/HCl (pH 7.4). Each filter was suspended in 10 ml Cytoscint (ICI), and radioactivity was measured by liquid scintillation spectrometry at a counting efficiency of approximately 50%. IC50 values were determined by non-linear regression analyis.
as §1
Radioligand Binding. […] Briefly, membranes (P2 microsomal fraction) were diluted 1:3 with 50 mM Tris HCl (pH 7.4) and 0.4 mL was combined with 50 μL [^3 H]DTG (1-2 nM final concentration) and 50 μL of competing drug or buffer. After 90 min at room temperature, incubation was terminated by rapid filtration under vacuum through Whatman GF/B glass fiber filters using a Brandel 48-well cell harvester. Filters were washed three times with 5 mL of cold Tris HCl buffer and each filter was suspended in 5 mL of Cytoscint (ICN Biomedical). Radioactivity was measured by liquid scintillation spectrometry at a counting efficiency of 50%.

Experiment [3] has as its target T2, sigma-1 binding site (Cavia porcellus, UniProt Q60492).
T2 construct: Guinea pig whole membrane preparations (P2 microsomal fraction); from tissue; host or cells: guinea pig membranes (P2 microsomal fraction), as described by Weber et al; brain inferred from the sister test b489
The experiment in a line: biochemical. Set-up: species or system guinea pig. The following applies: SIGMA-1 KI vs. 3H-PENTAZOCINE MEAN. The procedure: [^3 H]DTG was purchased from DuPont/NEN.
The radioactivity on the filters was determined by scintillation spectrometry at an efficiency of about 50% using Cytoscint (ICN) scintillation fluid.

Where [4] appears, read: running text, Examples 5 and 6, read-out: sigma receptor Ki.
Setting [5] is: Table 7, Phenyl-(CH2)x -NH--(CH2)y -Phenyl, read-out: Ki.

pIC50, pKi: −log10 of the molar value. Structures can show the parent of a compound that is named as a salt. Where two headings read alike, the source gives them in different places.

T2 sequence (Q60492 whole entry): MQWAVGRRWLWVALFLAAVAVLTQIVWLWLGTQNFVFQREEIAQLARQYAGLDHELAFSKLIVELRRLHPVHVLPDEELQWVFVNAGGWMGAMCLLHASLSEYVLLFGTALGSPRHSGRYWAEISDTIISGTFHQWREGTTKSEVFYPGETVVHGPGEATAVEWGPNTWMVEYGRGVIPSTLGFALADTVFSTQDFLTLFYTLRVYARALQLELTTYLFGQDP

`C[C@@H](Cc1ccccc1)N(C)CCc1ccccc1` [Compound 36]: the “Ratio 5-HT1A /σ” value in experiment [1] (Table 5) turned out to be 239. Further, the pIC50 in experiment [1] (Table 5, read-out: 5-HT1A IC50) is 5.79.
On to `COc1ccc(OC)c(CC(C)NCCCCc2ccccc2)c1` (centres unmarked) [Compound 65], for which the IC50 worked out at 72.9 nM in experiment [2] and 182 nM in experiment [1].
For `COc1cc(CC(C)NCCCCc2ccccc2)c(OC)cc1Br` (centres unmarked) [Compound 66] the same measures were 45.1 nM and 272 nM.
Consider `c1ccc(CCCNC2CCCc3ccccc3C2)cc1` (centres unmarked) [Compound 67], for which the figures for the IC50 in experiment [2] and in experiment [1] were 59.6 nM and 19.3 nM, respectively.
Taken in the same sequence, the figures for `C[C@@H](Cc1ccccc1)N(C)CCCc1ccc2ccccc2c1` [Compound 68] were 3.25 nM and 1320 nM.
Taken in the same sequence, the figures for `C[C@@H](Cc1ccccc1)N(C)CCCCCc1ccccc1` [Compound 69] were 2.25 nM and 891 nM.
For `c1ccc(CCCCNCCCc2ccccc2)cc1` [Compound 72] the same measures were 7.23 nM and 11.3 nM.
Regarding `c1ccc(CCCCNCCCCc2ccccc2)cc1` [Compound 73], the IC50 was 6.98 nM in experiment [2] and 55.7 nM in experiment [1].
As to `Clc1ccc(N2CCN(CCCc3ccccc3)CC2)cc1` [Compound 78], the IC50 in experiment [2] is 3.01 nM; in experiment [1] it was 98.4 nM.
For `c1ccc(CCCCN2CCC(c3ccccc3)CC2)cc1` [Compound 81] the same measures were 0.88 nM and 43.9 nM.
For `c1ccc(CCCCCN2CCC(c3ccccc3)CC2)cc1` [Compound 82] the same measures were 0.96 nM and 136 nM.
For `CCCc1ccc(CC(C)NCCCc2ccccc2)cc1` (centres unmarked) [Compound 84] the same measures were 6.43 nM and 168 nM.
For `CC(Cc1ccc(OCc2ccccc2)cc1)NCCCc1ccccc1` (centres unmarked) [Compound 85], the figures for the IC50 in experiment [2] and in experiment [1] were 28.1 nM and 1150 nM, respectively.
Taken in the same sequence, the figures for `CCCc1ccc(CC(C)N(C)CCCc2ccccc2)cc1` (centres unmarked) [Compound 86] were 2.43 nM and 502 nM.
For the compound `c1ccc(CCCNCCCC2CCCCC2)cc1` [Compound 92, N-(3-Cyclohexylpropyl)-3-phenylpropylamine Hydrochloride], the IC50 was found to be 2.99 nM in experiment [2] and 26.3 nM in experiment [1]. Also, the negative logarithm of the Ki (pKi) in experiment [2] (setting [4]) is 8.62.
`c1ccc(CCCCCNCC2CCCCC2)cc1` [Compound 93]: the “change in sigma affinity, words” value in experiment [2] (Example 6) is “binds with twice the affinity”. Moreover, the IC50 in experiment [2] came out at 1.4 nM; in experiment [1], 597 nM. For the same compound, the pKi in experiment [2] (setting [4]) is 8.92.
With `O=C1c2ccccc2C(=O)N1CCCCCN1CCN(c2ccccc2)CC1` [Compound 98], the IC50 worked out at 6.18 nM in experiment [2] and 2.23 nM in experiment [1].
For `c1ccc(CCCCCCNCCCc2ccccc2)cc1` [Compound 110] the same measures were 3.62 nM and 117 nM.
In experiment [2], `CN1CCC(O)(c2ccc(Cl)cc2)CC1` [Compound 156] yielded an IC50 of 131 nM.
The same measure, in the same setting: the same measure for `OC1(c2ccccc2)CCNC1` (centres unmarked) [Compound 157]: 6110 nM.
On to `O=C(CCCCN1CCCCC1)c1ccc(Cl)cc1` [Compound 159], for which, in experiment [2], the IC50 stood at 1.3 nM.
The same measure, in the same setting: the same measure for `O=C(CCCCN1CCC(c2ccccc2)CC1)c1ccc(Cl)cc1` [Compound 160]: 0.62 nM; for `COc1ccc(C(=O)CCCCN2CCCCC2)cc1` [Compound 161]: 10.9 nM.
Regarding `COc1ccc(C(=O)CCCCN2CCC(c3ccccc3)CC2)cc1` [Compound 162], the IC50 in experiment [2] turned out to be 0.9 nM.
On the same count and under the same terms, the same measure for `COc1ccc(CCCCCN2CCCCC2)cc1` [Compound 164]: 5.19 nM; for `COc1ccc(CCCCCN2CCC(c3ccccc3)CC2)cc1` [Compound 165]: 1.27 nM; for `O=C(CCCCN1CCC(c2ccccc2)CC1)c1ccccc1` [Compound 166]: 1.03 nM.
Still for that read-out and setting: the same measure for `Clc1ccc(CCCCCN2CCC(c3ccccc3)CC2)cc1` [Compound 167]: 1.96 nM; for `COc1cccc(C(=O)CCCCN2CCCCC2)c1` [Compound 169]: 22.8 nM.
`O=C(CCCCN1CCCCC1)c1cccc(Cl)c1` [Compound 170] showed an IC50 in experiment [2] of 4.18 nM.
Compound `O=C(CCCCN1CCC(c2ccccc2)CC1)c1cccc(Cl)c1` [Compound 171] gave an IC50 in experiment [2] of 1.19 nM.
In turn, `Oc1cccc(CCNCCCCCc2ccccc2)c1` [Compound 172, N-[2-(3-hydroxyphenyl)ethyl]-5-phenylpentylamine Hydrobromide] displayed an IC50 in experiment [2] of 7.46 nM.
On the same count and under the same terms, the same measure for `Oc1ccccc1CCNCCCCCc1ccccc1` [Compound 173]: 17.2 nM; for `COc1cccc(C(=O)CCCCN2CCC(c3ccccc3)CC2)c1` [Compound 174]: 1.1 nM; for `O=C(CCCN1CCCCC1)c1ccc(F)cc1` [Compound 175]: 42.9 nM.
The same measure, in the same setting: the same measure for `O=C(CCCCN1CCCCC1)c1ccc(F)cc1` [Compound 177]: 7.37 nM.
As for `O=C(CCCCN1CCC(c2ccccc2)CC1)c1ccc(F)cc1` [Compound 178], the IC50 in experiment [2] worked out at 0.896 nM.
On the same count and under the same terms, the same measure for `O=C(CCCCN1CCC(O)(c2ccc(Cl)cc2)CC1)c1ccc(F)cc1` [Compound 179]: 2.82 nM.
The same measure, in the same setting: the result for `O=C(CCCCN1CC=C(c2ccc(F)cc2)CC1)c1ccc(Cl)cc1` [Compound 180] reads 2.24 nM; that for `O=C(CCCCN1CCC(c2ccc(F)cc2)CC1)c1ccc(Cl)cc1` [Compound 181], 1.08 nM.
Same read-out and setting: the result for `O=C(CCCCN1CC=C(c2ccc(Cl)cc2)CC1)c1ccc(Cl)cc1` [Compound 182] reads 4.68 nM.
For the compound `O=C(CCCCN1CCC(c2ccc(Cl)cc2)CC1)c1ccc(Cl)cc1` [Compound 183], in experiment [2], the IC50 worked out at 1.97 nM.
On the same count and under the same terms, the same measure for `O=C(CCCCN1CCC(c2ccc(Cl)cc2)CC1)c1ccc(Cl)c(Cl)c1` [Compound 184]: 1.98 nM; for `CN1CCC(OC(c2ccccc2)c2ccccc2)CC1` [Compound 186]: 656 nM; for `CCN(CC)CCOC(=O)C(c1ccccc1)c1ccccc1` [Compound 187]: 50.6 nM.
The same measure, in the same setting: the same measure for `CCN(CC)CCOC(=O)C1c2ccccc2-c2ccccc21` [Compound 188]: 174 nM; for `O=C(CCCCN1CCCCC1)C1CCCC1` [Compound 189]: 13.5 nM.
Same read-out and setting: the result for `c1ccc(CCCCCN2CC3CCC(CC3)C2)cc1` [Compound 190] reads 1.07 nM; that for `C(/C=C/c1ccc2c(c1)OCO2)=C\CN1CCCCC1` [Compound 191], 8.14 nM.
`CCN1CCC[C@H]1CNC(=O)c1c(OC)ccc(Br)c1OC` [Remoxipride, reference compound] gave a pKi in experiment [3] of 6.51.
The same measure, in the same setting: the result for `O=C(CCCN1CCC2(CC1)C(=O)NCN2c1ccccc1)c1ccc(F)cc1` [Spiperone, reference compound] reads 5.00.
`c1ccc(CNCc2ccccc2)cc1` [x=1, y=1]: in experiment [2] (setting [5]), the pKi was 6.76.
The same measure, in the same setting: the same measure for `c1ccc(CCCCNCCCc2ccccc2)cc1` [x=3, y=4]: 8.15.
The same measure, in the same setting: the result for `c1ccc(CCCCCCNCCCc2ccccc2)cc1` [x=3, y=6] reads 8.59.
In the case of `c1ccc(CCCCNCCCCc2ccccc2)cc1` [x=4, y=4], the pKi in experiment [2] (setting [5]) was 8.17.
For N-(3-phenylpropyl)isopropylamine, in experiment [2] (setting [4]), the pKi is 7.66.

In general, pIC50 refers to −log10 of the IC50, conventionally taken in molar units. One may read the pKi as the Ki on a negative log10 scale, so that one unit is a factor of ten.
